The text below walks through data of patent US20240109918A1, “HETEROCYCLIC COMPOUNDS AND USES THEREOF” (Kumquat Biosciences Inc., priority 2022, published 2024).

One experiment deals with T1, KRASwt (Homo sapiens, UniProt P01116).
T1 construct: made in house; host or cells: E. coli BL21 (DE3)
Put plainly: Bio-Biochem-PPI-HTRF Ras-SOS1 interaction assay (KRAS wt). In kind it is biochemical. Conditions: 5 nM. Put shortly: (§1)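 HTRF measurement of GST-K-Ras (wt or G12D) binding to His-hSOS1, via anti-GST-Eu(K) donor and anti-6His-XL665 acceptor, in HEPES pH 7.4 buffer with NaCl, DTT, BSA and Igepal. Read after ≥10 min; compounds in duplicate from 10 μM down to 0.01 μM. IC50 from 665/620 nm ratio.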
Background: TR-FRET usually uses a lanthanide donor and a delayed reading to cut background.

In a further experiment the target is T2, KRASG12D (Homo sapiens, UniProt P01116, G12D).
T2 construct: made in house; host or cells: E. coli BL21 (DE3)
T2 sequence (P01116 1-188 isoform P01116-2 G12D): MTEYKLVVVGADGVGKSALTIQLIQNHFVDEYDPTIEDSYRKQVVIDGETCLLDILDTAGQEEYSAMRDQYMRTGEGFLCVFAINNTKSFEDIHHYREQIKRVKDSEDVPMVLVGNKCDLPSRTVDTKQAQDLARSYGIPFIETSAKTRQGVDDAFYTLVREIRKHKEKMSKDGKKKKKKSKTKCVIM
Put plainly: Bio-Biochem-PPI-HTRF Ras-SOS1 interaction assay (KRAS G12D). In kind it is biochemical. Conditions: 5 nM. Put shortly:
as §1

T1 sequence (P01116 1-188 isoform P01116-2): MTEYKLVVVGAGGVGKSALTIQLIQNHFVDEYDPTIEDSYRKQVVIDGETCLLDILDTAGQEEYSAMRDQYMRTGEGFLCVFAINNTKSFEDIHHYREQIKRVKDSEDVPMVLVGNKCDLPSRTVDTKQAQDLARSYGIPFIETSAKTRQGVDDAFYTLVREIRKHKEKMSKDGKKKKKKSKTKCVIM

For the molecule `COC1CN(C(=O)N2CC3(CCCCN(c4nc(OC[C@@]56CCCN5C[C@H](F)C6)nc5c(F)c(-c6ccc(F)c7sc(N)c(C#N)c67)c(Cl)cc45)C3)C2)C1` [compound 306, 2-amino-4-(6-chloro-8-fluoro-2-(((2R,7aS)-2-fluorotetrahydro-1H-pyrrolizin-7a(5H)-yl)methoxy)-4-(2-(3-methoxyazetidine-1-carbonyl)-2,6-diazaspiro[3.6]decan-6-yl)quinazolin-7-yl)-7-fluorobenzo[b]thiophene-3-carbonitrile], the IC50 at KRASwt and at KRASG12D was below 5 µM in each case.

Take `N#Cc1c(N)sc2c(F)ccc(-c3c(Cl)cc4c(N5CCCCC6(CN(C=O)C6)C5)nc(OC[C@@]56CCCN5C[C@H](F)C6)nc4c3F)c12` [compound 271, 2-amino-4-(6-chloro-8-fluoro-2-(((2R,7aS)-2-fluorotetrahydro-1H-pyrrolizin-7a(5H)-yl)methoxy)-4-(2-formyl-2,6-diazaspiro[3.6]decan-6-yl)quinazolin-7-yl)-7-fluorobenzo[b]thiophene-3-carbonitrile]: the IC50 against KRASwt and against KRASG12D was below 5 µM throughout.

For `CC1(C)CN(c2nc(OC[C@@]34CCCN3C[C@H](F)C4)nc3c(F)c(-c4ccc(F)c5sc(N)nc45)c(Cl)cc23)CC2(CN(C#N)C2)O1` [compound 180, 8-(7-(2-amino-7-fluorobenzo[d]thiazol-4-yl)-6-chloro-8-fluoro-2-(((2R,7aS)-2-fluorotetrahydro-1H-pyrrolizin-7a(5H)-yl)methoxy)quinazolin-4-yl)-6,6-dimethyl-5-oxa-2,8-diazaspiro[3.5] nonane-2-carbonitrile], the IC50 is below 5 µM at KRASwt and at least 5 µM against KRASG12D.

As for `N#Cc1c(N)sc2c(F)ccc(-c3c(Cl)cc4c(N5CCC(C(F)F)CC6(CN(C(=O)[C@@H]7CC7(F)F)C6)C5)nc(OC[C@@]56CCCN5C[C@H](F)C6)nc4c3F)c12` (stereo partly drawn) [compound 254, 2-amino-4-(6-chloro-4-(2-((S)-2,2-difluorocyclopropane-1-carbonyl)-9-(difluoromethyl)-2,6-diazaspiro[3.6]decan-6-yl)-8-fluoro-2-(((2R,7aS)-2-fluorotetrahydro-1H-pyrrolizin-7a(5H)-yl)methoxy)quinazolin-7-yl)-7-fluorobenzo[b]thiophene-3-carbonitrile], the half-maximal inhibitory concentration (IC50) on KRASwt and against KRASG12D was below 5 µM each time.

With `N#Cc1c(N)sc2c(F)ccc(-c3c(Cl)cc4c(N5CCOC6(CNC6)C5)nc(OC[C@@]56CCCN5C[C@H](F)C6)nc4c3F)c12` [compound 175, 2-amino-4-(6-chloro-8-fluoro-2-(((2R,7aS)-2-fluorotetrahydro-1H-pyrrolizin-7a(5H)-yl)methoxy)-4-(5-oxa-2,8-diazaspiro[3.5]nonan-8-yl)quinazolin-7-yl)-7-fluorobenzo[b]thiophene-3-carbonitrile], the IC50 at KRASwt and against KRASG12D was below 5 µM throughout.

For `N#Cc1c(N)sc2c(F)ccc(-c3c(Cl)cc4c(N5CC6(CN(C(=O)C7CC7(F)F)C6)C5)nc(OC[C@@]56CCCN5C[C@H](F)C6)nc4c3F)c12` (stereo partly drawn) [compound 219, 2-amino-4-(6-chloro-4-(6-(2,2-difluorocyclopropane-1-carbonyl)-2,6-diazaspiro[3.3]heptan-2-yl)-8-fluoro-2-(((2R,7aS)-2-fluorotetrahydro-1H-pyrrolizin-7a(5H)-yl)methoxy)quinazolin-7-yl)-7-fluorobenzo[b]thiophene-3-carbonitrile], the IC50 against KRASwt and at KRASG12D was below 5 µM in each case.

Turning to `CC1(C(=O)N2CC3(CCCCN(c4nc(OC[C@@]56CCCN5C[C@H](F)C6)nc5c(F)c(-c6ccc(F)c7sc(N)c(C#N)c67)c(Cl)cc45)C3)C2)CC1` [compound 228, 2-amino-4-(6-chloro-8-fluoro-2-(((2R,7aS)-2-fluorotetrahydro-1H-pyrrolizin-7a(5H)-yl)methoxy)-4-(2-(1-methylcyclopropane-1-carbonyl)-2,6-diazaspiro[3.6]decan-6-yl)quinazolin-7-yl)-7-fluorobenzo[b]thiophene-3-carbonitrile], the IC50 against KRASwt and against KRASG12D was below 5 µM throughout.

For `C#Cc1c(F)ccc2cc(O)cc(-c3ccc4c(N5CCCC6(CNC6)C5)nc(OC[C@@]56CCCN5C[C@H](F)C6)nc4c3F)c12` [compound 161, 5-ethynyl-6-fluoro-4-(8-fluoro-2-(((2R,7aS)-2-fluorotetrahydro-1H-pyrrolizin-7a(5H)-yl)methoxy)-4-(2,6-diazaspiro[3.5]nonan-6-yl)quinazolin-7-yl)naphthalen-2-ol], the IC50 on KRASwt and against KRASG12D was below 5 µM in each case.

With `N#Cc1c(N)sc2c(F)ccc(-c3c(Cl)cc4c(N5CCOC6(CN(C(=O)C(F)Cl)C6)C5)nc(OC[C@@]56CCCN5C[C@H](F)C6)nc4c3F)c12` (stereo partly drawn) [compound 200, 2-amino-4-(6-chloro-4-(2-(2-chloro-2-fluoroacetyl)-5-oxa-2,8-diazaspiro[3.5]nonan-8-yl)-8-fluoro-2-(((2R,7aS)-2-fluorotetrahydro-1H-pyrrolizin-7a(5H)-yl)methoxy)quinazolin-7-yl)-7-fluorobenzo[b]thiophene-3-carbonitrile], the concentration for half-maximal inhibition (IC50) against KRASwt and on KRASG12D was below 5 µM each time.

As to `C#Cc1c(F)ccc2cc(O)cc(-c3ncc4c(N5CCCC6(CNC6)C5)nc(O[C@@H](C)[C@@H]5CCCN5C)nc4c3F)c12` [compound 152, 5-ethynyl-6-fluoro-4-(8-fluoro-2-((S)-1-((S)-1-methylpyrrolidin-2-yl)ethoxy)-4-(2,6-diazaspiro[3.5]nonan-6-yl)pyrido[4,3-d]pyrimidin-7-yl)naphthalen-2-ol], the IC50 was below 5 µM at KRASwt and at least 5 µM on KRASG12D.

Turning to `N#Cc1c(N)sc2c(F)ccc(-c3c(Cl)cc4c(N5CCCCC6(CN(C(=O)C7CCCN7)C6)C5)nc(OC[C@@]56CCCN5C[C@H](F)C6)nc4c3F)c12` (stereo partly drawn) [compound 314, 2-amino-4-(6-chloro-8-fluoro-2-(((2R,7aS)-2-fluorotetrahydro-1H-pyrrolizin-7a(5H)-yl)methoxy)-4-(2-prolyl-2,6-diazaspiro[3.6]decan-6-yl)quinazolin-7-yl)-7-fluorobenzo[b]thiophene-3-carbonitrile], the IC50 against KRASwt and on KRASG12D was below 5 µM each time.

In the case of `CN(C)CC(=O)N1CC2(CCCN(c3nc(OC[C@@]45CCCN4C[C@H](F)C5)nc4c(F)c(-c5ccc(F)c6sc(N)c(C#N)c56)c(Cl)cc34)C2)C1` [compound 144, 2-amino-4-(6-chloro-4-(2-(dimethylglycyl)-2,6-diazaspiro[3.5]nonan-6-yl)-8-fluoro-2-(((2R,7aS)-2-fluorotetrahydro-1H-pyrrolizin-7a(5H)-yl)methoxy)quinazolin-7-yl)-7-fluorobenzo[b]thiophene-3-carbonitrile], the IC50 on KRASwt and against KRASG12D was below 5 µM each time.

With `N#Cc1c(N)sc2c(F)ccc(-c3c(Cl)cc4c(N5CCCCC6(CN(C(=O)CC7CCC7)C6)C5)nc(OC[C@@]56CCCN5C[C@H](F)C6)nc4c3F)c12` [compound 320, 2-amino-4-(6-chloro-4-(2-(2-cyclobutylacetyl)-2,6-diazaspiro[3.6]decan-6-yl)-8-fluoro-2-(((2R,7aS)-2-fluorotetrahydro-1H-pyrrolizin-7a(5H)-yl)methoxy)quinazolin-7-yl)-7-fluorobenzo[b] thiophene-3-carbonitrile], the half-inhibitory concentration (IC50) against KRASwt and on KRASG12D was below 5 µM each time.

Regarding `Cc1ccnc(C(C)C)c1-n1c(=O)nc(N2CCOC3(CNC3)C2)c2cc(F)c(-c3ccc(F)c4sc(N)c(C#N)c34)nc21` [compound 108, 2-amino-7-fluoro-4-(6-fluoro-1-(2-isopropyl-4-methylpyridin-3-yl)-2-oxo-4-(5-oxa-2,8-diazaspiro[3.5]nonan-8-yl)-1,2-dihydropyrido[2,3-d]pyrimidin-7-yl)benzo[b]thiophene-3-carbonitrile], the IC50 at KRASwt and against KRASG12D was at least 5 µM each time.

As for `N#CCC1CCN(c2nc(OC[C@@]34CCCN3C[C@H](F)C4)nc3c(F)c(-c4ccc(F)c5sc(N)c(C#N)c45)c(Cl)cc23)CC2(C1)CN(C(=O)C1CC1(F)F)C2` (stereo partly drawn) [compound 324, 2-amino-4-(6-chloro-4-(9-(cyanomethyl)-2-(2,2-difluorocyclopropane-1-carbonyl)-2,6-diazaspiro[3.6]decan-6-yl)-8-fluoro-2-(((2R,7aS)-2-fluorotetrahydro-1H-pyrrolizin-7a(5H)-yl)methoxy)quinazolin-7-yl)-7-fluorobenzo[b]thiophene-3-carbonitrile], the IC50 against KRASwt and against KRASG12D was below 5 µM throughout.

`CC(=O)N1CC2(CCCN(c3nc(OC[C@@]45CCCN4C[C@H](F)C5)nc4c(F)c(-c5ccc(F)c6sc(N)c(C#N)c56)c(Cl)cc34)C2)C1` [compound 169, 4-(4-(2-acetyl-2,6-diazaspiro[3.5]nonan-6-yl)-6-chloro-8-fluoro-2-(((2R,7aS)-2-fluorotetrahydro-1H-pyrrolizin-7a(5H)-yl)methoxy)quinazolin-7-yl)-2-amino-7-fluorobenzo[b]thiophene-3-carbonitrile]: the IC50 against KRASwt and on KRASG12D was below 5 µM throughout.

Turning to `CC(C)[C@H](N)C(=O)N1CC2(CCCCN(c3nc(OC[C@@]45CCCN4C[C@H](F)C5)nc4c(F)c(-c5ccc(F)c6sc(N)c(C#N)c56)c(Cl)cc34)C2)C1` [compound 221, 4-(4-(2-(L-valyl)-2,6-diazaspiro[3.6]decan-6-yl)-6-chloro-8-fluoro-2-(((2R,7aS)-2-fluorotetrahydro-1H-pyrrolizin-7a(5H)-yl)methoxy)quinazolin-7-yl)-2-amino-7-fluorobenzo[b]thiophene-3-carbonitrile], the IC50 against KRASwt and against KRASG12D was below 5 µM throughout.

The term IC50 denotes the concentration that gives 50% inhibition.
